# System: log phase NDM-1 Klebsiella Pneumoniae (NCTC13443)
# Test: Time-kill method over 24 hours (CFU counts)
# Format: cell-based
# Details: FIG. 1
# Method: As described hereinabove, time-kill methods are another accepted test for ascertaining the presence or absence of synergy, and involve comparing the dynamic effect of a drug combination with each drug alone when assessing the effect on bacterial log or stationary-growth over time.
# • 1. Bacterial strain used: NCTC13443 strain of Klebsiella Pneumoniae • 2. Growth of bacteria: Log phase growth of NCTC13443 was carried out according to known methods in the art, e.g. SOP R-005-00 Log Phase Growth of Bacteria. • 3. Compound preparation: dichlorophen and meropenem trihydrate were both obtained from commercial sources (e.g. Sigma-Aldrich® UK). • 4. The overnight culture was diluted with nutrient broth (Oxoid) to 10^7 CFU/ml and 280 μl and 290 μl of the culture was added to each combination well and drug respectively, to make the final concentration of 300 μl. • 5. Incubation of the compounds with the bacterial suspension was carried out for 24 hours. At 0, 2, 4, 7 and 24 hours, CFU counts were performed to measure the kill effects of the drug combination.
Compound,effect against log phase NDM-1 Klebsiella Pneumoniae (time-kill) (used alone at 64 mg/L),effect against log phase NDM-1 Klebsiella Pneumoniae (time-kill) (used alone at 512 mg/L)
"Oc1ccc(Cl)cc1Cc1cc(Cl)ccc1O [dichlorophen, 4-chloro-2-[(5-chloro-2-hydroxyphenyl)methyl] phenol]",little or no effect,–
C[C@@H](O)[C@H]1C(=O)N2C(C(=O)O)=C(S[C@@H]3CN[C@H](C(=O)N(C)C)C3)[C@H](C)[C@H]12 [meropenem trihydrate],–,little or no effect

# Source: US20200000742A1, “COMBINATION” (priority 2016, published 2020)
